# PubChem BioAssay (NCI)
#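 Step 1: Grow cells in 96-well plates. Step 2: Expose to compound for 48 hours at 5 concentrations. Step 3: Interpolate endpoints linearly; if unreached, use highest concentration. The concentration for 50% growth inhibition is given as GI50. TGI: concentration producing complete growth inhibition.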
# Legend:
# Assay in all cases: inhibition of tumour cell growth, NCI panel, 48 h
# HCT-15 colon = test system: HCT-15 colon
# NCI-H522 lung = test system: NCI-H522 lung
# NCI-H23 lung = test system: NCI-H23 lung
# U251 CNS = test system: U251 CNS
# UO-31 renal = test system: UO-31 renal
# M14 melanoma = test system: M14 melanoma
# SK-MEL-2 melanoma = test system: SK-MEL-2 melanoma
# LOX IMVI melanoma = test system: LOX IMVI melanoma
# A498 renal = test system: A498 renal
# MDA-MB-435 = test system: MDA-MB-435
# BT-549 breast = test system: BT-549 breast
# NCI-H226 lung = test system: NCI-H226 lung
# SNB-75 CNS = test system: SNB-75 CNS
# DU-145 prostate = test system: DU-145 prostate
# OVCAR-8 ovarian = test system: OVCAR-8 ovarian
# ACHN renal = test system: ACHN renal
# A549 NSCLC = test system: A549 NSCLC
# NCI-H460 lung = test system: NCI-H460 lung
# HT29 colon = test system: HT29 colon
# IGROV1 ovarian = test system: IGROV1 ovarian
# MALME-3M melanoma = test system: MALME-3M melanoma
# TK-10 renal = test system: TK-10 renal
# SF-295 CNS = test system: SF-295 CNS
# PC-3 prostate = test system: PC-3 prostate
# SNB-19 CNS = test system: SNB-19 CNS
# OVCAR-4 ovarian = test system: OVCAR-4 ovarian
# T-47D breast = test system: T-47D breast
# HL-60(TB) leukemia = test system: HL-60(TB) leukemia
# HOP-62 NSCLC = test system: HOP-62 NSCLC
# K-562 leukemia = test system: K-562 leukemia
# RPMI-8226 leukemia = test system: RPMI-8226 leukemia
# NCI/ADR-RES ovarian = test system: NCI/ADR-RES ovarian
# SF-539 CNS = test system: SF-539 CNS
# SW-620 colon = test system: SW-620 colon
# 786-0 renal = test system: 786-0 renal
# MDA-MB-231 breast = test system: MDA-MB-231 breast
# MDA-MB-468 breast = test system: MDA-MB-468 breast
# MCF7 breast = test system: MCF7 breast
# SN12C renal = test system: SN12C renal
# HCC-2998 colon = test system: HCC-2998 colon
# OVCAR-5 ovarian = test system: OVCAR-5 ovarian
# SK-MEL-28 melanoma = test system: SK-MEL-28 melanoma
# HS 578T breast = test system: HS 578T breast
# SF-268 CNS = test system: SF-268 CNS
# RXF 393 renal = test system: RXF 393 renal
# HOP-92 NSCLC = test system: HOP-92 NSCLC
# COLO 205 colon = test system: COLO 205 colon
# UACC-257 melanoma = test system: UACC-257 melanoma
# OVCAR-3 ovarian = test system: OVCAR-3 ovarian
# KM12 colon = test system: KM12 colon
# MOLT-4 leukemia = test system: MOLT-4 leukemia
# HCT-116 colon = test system: HCT-116 colon
# UACC-62 melanoma = test system: UACC-62 melanoma
# CCRF-CEM leukemia = test system: CCRF-CEM leukemia
# SK-OV-3 ovarian = test system: SK-OV-3 ovarian
# CAKI-1 renal = test system: CAKI-1 renal
# SK-MEL-5 melanoma = test system: SK-MEL-5 melanoma
# EKVX NSCLC = test system: EKVX NSCLC
smiles,measurement,setting,value
COC(=O)C[C@](O)(CCCC(C)C)C(=O)O[C@H]1C(OC)=C[C@@]23CCCN2CCc2cc4c(cc2[C@@H]13)OCO4,GI50,HCT-15 colon,1130 nM
same,TGI,HCT-15 colon,4220 nM
same,GI50,NCI-H522 lung,1030 nM
same,TGI,NCI-H522 lung,2970 nM
same,GI50,NCI-H23 lung,1350 nM
same,TGI,NCI-H23 lung,6660 nM
same,GI50,U251 CNS,1210 nM
same,TGI,U251 CNS,11800 nM
same,GI50,UO-31 renal,1070 nM
same,TGI,UO-31 renal,11200 nM
same,GI50,M14 melanoma,1140 nM
same,TGI,M14 melanoma,4660 nM
same,GI50,SK-MEL-2 melanoma,3960 nM
same,TGI,SK-MEL-2 melanoma,12700 nM
same,GI50,LOX IMVI melanoma,852 nM
same,TGI,LOX IMVI melanoma,4450 nM
same,GI50,A498 renal,776 nM
same,TGI,A498 renal,5780 nM
same,GI50,MDA-MB-435,1830 nM
same,TGI,MDA-MB-435,12900 nM
same,GI50,BT-549 breast,995 nM
same,TGI,BT-549 breast,3740 nM
same,GI50,NCI-H226 lung,940 nM
same,TGI,NCI-H226 lung,7230 nM
same,GI50,SNB-75 CNS,1970 nM
same,TGI,SNB-75 CNS,13900 nM
same,GI50,DU-145 prostate,1910 nM
same,TGI,DU-145 prostate,17900 nM
same,GI50,OVCAR-8 ovarian,1790 nM
same,TGI,OVCAR-8 ovarian,19700 nM
same,GI50,ACHN renal,1210 nM
same,TGI,ACHN renal,6610 nM
same,GI50,A549 NSCLC,1390 nM
same,TGI,A549 NSCLC,17700 nM
same,GI50,NCI-H460 lung,695 nM
same,TGI,NCI-H460 lung,4780 nM
same,GI50,HT29 colon,1160 nM
same,TGI,HT29 colon,5990 nM
same,GI50,IGROV1 ovarian,1770 nM
same,TGI,IGROV1 ovarian,18800 nM
same,GI50,MALME-3M melanoma,888 nM
same,TGI,MALME-3M melanoma,3220 nM
same,GI50,TK-10 renal,4120 nM
same,TGI,TK-10 renal,27300 nM
same,GI50,SF-295 CNS,1490 nM
same,TGI,SF-295 CNS,11600 nM
same,GI50,PC-3 prostate,1380 nM
same,TGI,PC-3 prostate,14600 nM
same,GI50,SNB-19 CNS,917 nM
same,TGI,SNB-19 CNS,6240 nM
same,GI50,OVCAR-4 ovarian,1640 nM
same,TGI,OVCAR-4 ovarian,17000 nM
same,GI50,T-47D breast,1620 nM
same,TGI,T-47D breast,31800 nM
same,GI50,HL-60(TB) leukemia,771 nM
same,TGI,HL-60(TB) leukemia,2270 nM
same,GI50,HOP-62 NSCLC,2800 nM
same,TGI,HOP-62 NSCLC,30000 nM
same,GI50,K-562 leukemia,1140 nM
same,TGI,K-562 leukemia,11100 nM
same,GI50,RPMI-8226 leukemia,1050 nM
same,TGI,RPMI-8226 leukemia,2990 nM
same,GI50,NCI/ADR-RES ovarian,2550 nM
same,TGI,NCI/ADR-RES ovarian,19000 nM
same,GI50,SF-539 CNS,838 nM
same,TGI,SF-539 CNS,2240 nM
same,GI50,SW-620 colon,1490 nM
same,TGI,SW-620 colon,32500 nM
same,GI50,786-0 renal,1960 nM
same,TGI,786-0 renal,14300 nM
same,GI50,MDA-MB-231 breast,3880 nM
same,TGI,MDA-MB-231 breast,14600 nM
same,GI50,MDA-MB-468 breast,869 nM
same,TGI,MDA-MB-468 breast,3200 nM
same,GI50,MCF7 breast,751 nM
same,TGI,MCF7 breast,2790 nM
same,GI50,SN12C renal,3620 nM
same,TGI,SN12C renal,23200 nM
same,GI50,HCC-2998 colon,723 nM
same,TGI,HCC-2998 colon,2710 nM
same,GI50,OVCAR-5 ovarian,2560 nM
same,TGI,OVCAR-5 ovarian,15400 nM
same,GI50,SK-MEL-28 melanoma,1290 nM
same,TGI,SK-MEL-28 melanoma,8710 nM
same,GI50,HS 578T breast,2120 nM
same,TGI,HS 578T breast,18500 nM
same,GI50,SF-268 CNS,5010 nM
same,TGI,SF-268 CNS,22800 nM
same,GI50,RXF 393 renal,641 nM
same,TGI,RXF 393 renal,2180 nM
same,GI50,HOP-92 NSCLC,2300 nM
same,TGI,HOP-92 NSCLC,18600 nM
same,GI50,COLO 205 colon,1790 nM
same,TGI,COLO 205 colon,8730 nM
same,GI50,UACC-257 melanoma,2160 nM
same,TGI,UACC-257 melanoma,15600 nM
same,GI50,OVCAR-3 ovarian,1130 nM
same,TGI,OVCAR-3 ovarian,8520 nM
same,GI50,KM12 colon,1540 nM
same,TGI,KM12 colon,21600 nM
same,GI50,MOLT-4 leukemia,699 nM
same,TGI,MOLT-4 leukemia,3400 nM
same,GI50,HCT-116 colon,992 nM
same,TGI,HCT-116 colon,5440 nM
same,GI50,UACC-62 melanoma,3150 nM
same,TGI,UACC-62 melanoma,16600 nM
same,GI50,CCRF-CEM leukemia,1020 nM
same,TGI,CCRF-CEM leukemia,7080 nM
same,GI50,SK-OV-3 ovarian,1620 nM
same,TGI,SK-OV-3 ovarian,38200 nM
same,GI50,CAKI-1 renal,2410 nM
same,TGI,CAKI-1 renal,35200 nM
same,GI50,SK-MEL-5 melanoma,823 nM
same,TGI,SK-MEL-5 melanoma,2450 nM
same,GI50,EKVX NSCLC,2290 nM
same,TGI,EKVX NSCLC,18100 nM
